This data set in a line: Examination of molecular state of AC220 in aqueous solution (1H chemical shift displacements, NOESY). The format is physicochemical. The method, then: The molecular state of AC220 in the aqueous solution was examined. […] The protons of d and e could not be analyzed due to the overlapping with other proton signals.
Furthermore, the Hill coefficient was calculated from the analysis of the ^1H chemical shift displacements: the value was greater than 1, and indicated a network formation. It was confirmed that the addition of methanol to the AC220 aqueous solution inhibited the gel formation, and that the network was formed by intermolecular hydrogen bonding.

Regarding `CC(C)(C)c1cc(NC(=O)Nc2ccc(-c3cn4c(n3)sc3cc(OCCN5CCOCC5)ccc34)cc2)no1` [AC220, N-(5-tert-butyl-isoxazol-3-yl)-N′-{4-[7-(2-morpholin-4-yl-ethoxy)imidazo[2,1-b][1,3]benzothiazol-2-yl]phenyl}urea], the Hill coefficient entry (calculated from 1H chemical shift displacements of AC220 aqueous solutions, indicates network formation) is given as “greater than 1”. Further, the Solubility in water entry (gelation of the aqueous solution with increasing concentration) is “soluble”.

Source of the values: patent US9675549B2, “Tablet containing composite with cyclodextrin” (AMBIT BIOSCIENCES CORPORATION, priority 2012, dated 2017).
